From patent US20210121432A1, “Bambuterol for the Treatment of Alzheimer's Disease” (priority 2018, published 2021)

Assays:
[1] = test system: rat primary hippocampal neurons injured with Aβ; assay: Plate B: synapses evaluation (PSD95/SYN) in hippocampal neurons injured with Aβ1-42; type: cell-based; conditions: Aβ 2.5 μM 24 h, FIG. 3
Method: (§1) Bambuterol, referred to as MR36621 in the experiments was tested on rat primary hippocampal neurons that were injured with Aβ. Donezpil was used as a reference test compound.
Rat hippocampal neurons were cultured as described by Callizot et al., Operational dissection of β-amyloid cytopathic effects of cultured neurons, J. Neurosci. Res. 2013 May; 91(5): 706-16. Pregnant female rats of 17 days gestation (Rats Wistar; Janvier Labs France) were euthanized using a deep anesthesia with a CO2 chamber followed by a cervical dislocation. […]
The supernatant was discarded, and the pellet was resuspended in a defined culture medium consisting of Neurobasal medium with a 2% solution of B27 supplement, 2 mmol/liter of L-glutamine, 2% of PS solution, and 10 ng/ml of brain-derived neurotrophic factor (BDNF). Viable cells were counted in a Neubauer cytometer, using the trypan blue exclusion test. […]
(§2) Bambuterol was placed in a culture medium and preincubated for 1 hour before Aβ application. An Aβ1-42 preparation was added to a final concentration of 20 or 2.5 μM (=2 μM or 0.25 μM of AβO, evaluated by automatic WB) diluted in control medium in presence of the compound. […]
The following endpoints were assessed: • Total number of synapses (overlapping between PSD95/SYN).

[2] = test system: rat primary hippocampal neurons injured with Aβ; assay: Plate A: survival and neurite network of MAP-2 hippocampal neurons injured with Aβ1-42; type: cell-based; conditions: for Neurite length per neuron (total neurite network normalized by the number of neurons): FIG. 2C
Method: as §1
(§3) Rat hippocampal neurons were cultured as described by Callizot et al., Operational dissection of β-amyloid cytopathic effects of cultured neurons, J. Neurosci. Res. 2013 May; 91(5): 706-16. Pregnant female rats of 17 days gestation (Rats Wistar; Janvier Labs France) were euthanized using a deep anesthesia with a CO2 chamber followed by a cervical dislocation. Fetuses were removed from the uterus and immediately placed in ice-cold L15 Leibovitz medium with a 2% penicillin (10,000 U/ml) and streptomycin (10 mg/ml) solution (PS) and 1% bovine serum albumin (BSA).
(§4) Hippocampal neurons were treated for 20 min at 37° C. with a trypsin-EDTA solution at a final concentration of 0.05% trypsin and 0.02% EDTA. The dissociation was stopped by adding Dulbecco's modified Eagle's medium (DMEM) with 4.5 g/liter of glucose, containing DNAse I grade II (final concentration 0.5 mg/ml) and 10% fetal calf serum (FCS). Cells were mechanically dissociated by three forced passages through the tip of a 10-ml pipette and then centrifuged at 515×g for 10 min at 4° C.
(§5) The supernatant was discarded, and the pellet was resuspended in a defined culture medium consisting of Neurobasal medium with a 2% solution of B27 supplement, 2 mmol/liter of L-glutamine, 2% of PS solution, and 10 ng/ml of brain-derived neurotrophic factor (BDNF). Viable cells were counted in a Neubauer cytometer, using the trypan blue exclusion test. Cells were seeded at a density of 20,000 per well in 96-well plates precoated with poly-L-lysine and cultured at 37° C. in an air (95%)-CO2 (5%) incubator. The medium was changed every 2 days.
The hippocampal neurons were exposed with A solutions after 17 days of culture. An Aβ1-42 preparation was done following the procedure described by Callizot et al., 2013. Aβ1-42 is a forty-two amino acid form of amyloid β in cerebrospinal fluid and is recognized by persons of ordinary skill in the art as a biomarker for Alzheimer's disease.
Aβ1-42 peptide was dissolved in the defined culture medium mentioned above, at an initial concentration of 40 μM. This solution was gently agitated for 3 days at 37° C. in the dark and immediately used after being properly diluted in culture medium to the concentrations used (20 μM (plate 13) or 2.5 μM (plate 14) corresponding to 2 μM or 0.25 μM of oligomers (AβO) respectively).
Bambuterol was placed in a culture medium and preincubated for 1 hour before Aβ application. An Aβ1-42 preparation was added to a final concentration of 20 or 2.5 μM (=2 μM or 0.25 μM of AβO, evaluated by automatic WB) diluted in control medium in presence of the compound.
Table I identifies two plates that exposed two concentrations of Aβ to different concentrations of bambuterol. The bambuterol was preincubated 1 hour before the application of Aβ.
Twenty-four hours after intoxication, the hippocampal neurons were fixed by a cold solution of ethanol (95%) and acetic acid (5%) for 5 min at −20° C. After permeabilization with 0.1% of saponin, cells were incubated for 2 hours with: • (a) chicken polyclonal antibody anti microtubule-associated-protein 2 (MAP-2), diluted at 1/1000 in PBS containing 1% fetal calf serum and 0.1% of saponin (this antibody allows the specific staining of neuronal cell bodies and neurites; and allow the study of neuronal cell death and neurite network); and • (b) mouse monoclonal antibody anti-phospho Tau (AT100) at dilution of 1/400 in PBS containing 1% fetal calf serum and 0.1% of saponin.
For each condition, multiple pictures (representative of the whole well area) per well were taken using ImageXpress (Molecular Devices) at 20× magnification. All images were taken with the same acquisition parameters. Analyses were performed automatically by using Custom Module Editor® (Molecular Devices). […]

[3] = test system: hyperphosphorylated Tau (AT100) in MAP-2 positive neurons; assay: Plate A: phospho Tau (AT100) evaluation in MAP-2 hippocampal neurons injured with Aβ1-42; type: cell-based, rat; conditions: Aβ 20 μM 24 h, FIG. 2D
Method: as §1, §3, §4
as §5, with “days. […]” for “days.”
as §2

Structure (SMILES)	Number of synapses (overlapping PSD95/SYN) ([1]; bambuterol from 10 nM to 100 nM)	Total neurite network (MAP-2 positive neurons) ([2]; Aβ 20 μM 24 h, all investigated doses of bambuterol (1 nM to 1 μM), FIG. 2B)	Neurite length per neuron (total neurite network normalized by the number of neurons) ([2]; Aβ 20 μM 24 h, bambuterol 1 nM to 1 μM)	Neuronal survival (number of MAP-2 positive neurons) ([2]; Aβ 20 μM 24 h, bambuterol highest doses 500 nM and 1 μM, FIG. 2A)	Neuronal survival (number of MAP-2 positive neurons) ([2]; Aβ 20 μM 24 h, bambuterol low doses 1 nM to 100 nM, preincubated 1 h, FIG. 2A)	Dose of maximal effect on neurite network ([2]; Aβ 20 μM 24 h, bell-shape curve, FIG. 2B) [nM]	Dose of maximal effect on neuronal survival ([2]; Aβ 20 μM 24 h, bell-shaped curve, FIG. 2A) [nM]	Effects of bambuterol compared with Donepezil (summary of the examples) ([2]; bambuterol at a dose of 10 nM, hippocampal neurons injured with Aβ 1-42, overall statement over all readouts)	Hyperphosphorylation of Tau (AT100) ([3]; bambuterol all investigated doses (1 nM to 1 μM))	Dose of maximal effect on hyperphosphorylation of Tau ([3]; bell-shape curve) [nM]	Number of synapses (overlapping PSD95/SYN) ([1]; Donepezil 1 μM)	Neuronal survival (number of MAP-2 positive neurons) ([2]; Aβ 20 μM 24 h, Donepezil 1 μM, FIG. 2A)	Total neurite network (MAP-2 positive neurons) ([2]; Aβ 20 μM 24 h, Donepezil 1 μM, FIG. 2B)	Neurite length per neuron (total neurite network normalized by the number of neurons) ([2]; Aβ 20 μM 24 h, Donepezil 1 μM)	Hyperphosphorylation of Tau (AT100) ([3]; Donepezil 1 μM)
CN(C)C(=O)Oc1cc(OC(=O)N(C)C)cc(C(O)CNC(C)(C)C)c1 (stereo not drawn) [bambuterol]	able to preserve the number of synapses	exerted protective effects on the neurite network	did not change this parameter	did not show any protective effect	significant neuroprotective effects to a similar or higher extent to donepezil	10	10	comparable, and even greater, to those of Donepezil	significantly reduced the hyperphosphorylation of Tau	10					
COc1cc2c(cc1OC)C(=O)C(CC1CCN(Cc3ccccc3)CC1)C2 (stereo not drawn) [Donepezil]											mitigated the loss of synapses	significantly protect neurons from death	significantly preserved almost the whole neurite network	longer	significantly mitigate this hyperphosphorylation
